Laboratory results from US8716247B2, “Peptides effective in the treatment of tumors and other conditions requiring the removal or destruction of cells” (Nymox Corporation, priority 2006, dated 2014).
Where no end group is shown, it is not given here.

System: prostate
Assay: Intraprostatic infusion of S05A Peptides in rats: histological changes of cell death and prostate volume
Assay type: in vivo, Male Sprague-Dawley rats
Design: key to Histological Changes of Cell Death at 24 Hours / Histological Changes of Cell Death at 72 Hours: −: Absent; +: Present, Minimal; ++: Present, Moderate; +++: Present, Moderate and Diffuse; ++++: Present, Diffuse and Extensive
Conditions: for histological findings in prostate of treated rats: rat prostate after intraprostatic infusion, 1.0 mg/kg; for Calculated Mean Volume 24 Hours / Calculated Mean Volume 72 Hours / Calculated Mean Volume 7 Days: rat prostate volume from mean cross-sectional diameters, V=4/3π(D/2)^3; for Calculated Mean Volume 24 Hours / Calculated Mean Volume 72 Hours / Calculated Mean Volume 7 Days / Calculated Mean Volume Overall: 1.0 mg/kg intraprostatic; for Calculated Mean Volume Overall: rat prostate volume, overall across 24 hours, 72 hours and 7 days; for Histological Changes of Cell Death at 24 Hours / Histological Changes of Cell Death at 72 Hours: rat prostate, intraprostatic infusion 300 μl of 1 mg/mL in PBS pH 7.4 (1.0 mg/kg), H & E sections
Protocol: The purpose of this example was to determine the effect of S05A Peptides on tissue at sites of injection.
Male Sprague-Dawley rats (300 gram weight range) were anesthetized with ether and given one of the above S05A Peptides by intraprostatic infusion, a control injection of normal saline or no injection after open surgical visualization of the prostate. The injections consisted of 300 μl of the S05A Peptide 1 mg/mL in PBS pH 7.4. (1.0 mg/kg) (n=36). Rats were painlessly sacrificed after 24 hours (n=12), 72 hours (n=12) and 7 days (n=12). Prostate glands were dissected, fixed in 10% buffered formalin for 24 hours, embedded in paraffin, sectioned, and stained with H & E. For each animal the entire prostate gland was embedded and sectioned. All stained sections were examined histologically and measured. For each prostate at least […] histological sections were examined, and for each histological section two cross-sectional diameters (D) at 90° from each other were measured (total of ≧8 measurements per prostate). The mean of the cross-sectional diameters (D) for each group was used to estimate volume according to V=4/3π(D/2)^3 and the mean volume calculated for each group. Histological changes were assessed on the following scale:
+++ Present, Moderate and Diffuse
++++ Present, Diffuse and Extensive

| Substance | histological findings in prostate of treated rats | Calculated Mean Volume 24 Hours | Calculated Mean Volume 72 Hours | Calculated Mean Volume 7 Days | Calculated Mean Volume Overall | Histological Changes of Cell Death at 24 Hours | Histological Changes of Cell Death at 72 Hours |
| --- | --- | --- | --- | --- | --- | --- | --- |
| IDQQVLSRI [S05A-2] | extensive cell death, necrosis, loss of glandular epithelium and atrophy | 180 mm^3 | 249 mm^3 | 165 mm^3 | 198 mm^3 | ++++ | ++++ |
| IDQQVLSRIKLEI [S05A-7] | extensive cell death, necrosis, loss of glandular epithelium and atrophy | 180 mm^3 | 165 mm^3 | 357 mm^3 | 234 mm^3 | ++++ | ++++ |
| KLEIKRCL [S05A-3] | – | 249 mm^3 | 435 mm^3 | 463 mm^3 | 382 mm^3 | + | + |
| RIKLEIK [S05A-5] | – | 249 mm^3 | 408 mm^3 | 392 mm^3 | 350 mm^3 | + | + |
| VLSRIK [S05A-4] | – | 357 mm^3 | 408 mm^3 | 333 mm^3 | 366 mm^3 | + | + |
| VLSRIKLEIKRCL [S05A-6] | – | 310 mm^3 | 493 mm^3 | 408 mm^3 | 404 mm^3 | + | + |
